Source: publication PMC12070228, “Investigations of Enteric-Coated Tablet Propyl Gallate-Induced Nephrotoxicity in Beagles as well as Human and Dog Renal Proximal Tubule Epithelial Cells” (ACS Pharmacology & Translational Science, 2025)
Read-outs that look alike come from different tables or passages of the source.

Legend:
[1] = no reference given; cited from earlier work
[2] = PG toxicokinetics in dog plasma (LC-MS/MS), studies 001-005; format: in vivo; conditions: beagle, po
Protocol: Samples were vortexed and centrifuged before injection.
The total run time was 5.5 min.
The targeted quantitation of PG and phase-I/II metabolites was conducted using peak area ratio of analytes and internal standards in MultiQuant software (SCIEX).
In the follow-up 4-week study (study 003), dogs received EC tablets consisting of the clinical formulation excipients minus PG, clinical formulation excipients minus NaCDC, or PG alone in a gelatin capsule once daily for 26 days. […] Samples for PG toxicokinetics were collected on days 1 and 22 of the dosing-phase at predose (Day 22 only) and 0.5, 1, 2, 4, 6, 8, 12, and 24 h postdose. […] Plasma samples for the measurement of lipopolysaccharide (LPS) were taken twice in the pretest period, predose and 2 h after dosing on Days 15 and 22, and prior to necropsy. LPS concentrations were measured using a qualified sandwich ELISA method (LSBiosciences) with a detection range of 7.82 to 500 pg/mL.
Table S2. Correlation of PG exposure with nephrotoxicity.
AUC0-24 = area under the concentration versus time curve from time 0 to 24 hours; clin = clinical; F = female; M = male; NR = no result due to insufficient data. […]
a Clinical formulation excipients included sodium chenodeoxycholate (Na CDC), propyl gallate (PG), tris(hydroxymethyl)aminomethane (Tris)(except for Study 005), mannitol, crospovidone, aerosil, sodium stearyl fumarate, eudragit, and plasarcryl. b Study 001: Initial 4-week investigational new drug (IND)-enabling good laboratory practice (GLP) study c Study 002: Investigative 4-week study with different excipient combinations d Study 003: Follow-up investigative 4-week study with non-enteric coated capsule e Study 004: 3-month GLP study f Study 005: 9-month GLP study g Day 7 AUC value is presented; AUC could not be calculated for Day 28 samples due to insufficient data. h Minimal nephropathy observed in 2 recovery (4 weeks) group females, but not in main group animals.

[3] = Exposure comparison of PG and phase-I and phase-II metabolites in dog and human plasma; conditions: oral EC MEDI7219 tablets; samples through 8 h; human PG 800 mg (N = 8), dog PG 200 mg/kg/day (N = 6)
Protocol: Dog blood was collected via jugular vein in potassium (K2) EDTA tubes and processed to plasma. Samples were centrifuged at approximately 3000 rpm for 5 min at approximately 4 °C within 30 min of collection. Plasma samples were acidified with 1% (v/v) formic acid (FA) to avoid degradation of PG and metabolites in plasma within 20 min of the start of centrifugation and then stored frozen (≤-60 °C). Acidified plasma was extracted using internal standard-spiked solution (100 mM ammonium bicarbonate: acetonitrile = 1:4). Samples were then centrifuged to collect supernatant, followed by drying to completion. The dried samples were reconstituted with 200 uL of 0.1% (v/v) formic acid in water. Samples were vortexed and centrifuged before injection. In order to assess potential impact of hemolysis on qualification of PG and its metabolites, hemolyzed plasma was prepared by spiking fully hemolyzed whole blood at an indicated percentage into plasma.
Separations were conducted on a reversed-phase column (Phenomenex, Kinetex F5, 2.6 μm 100 Å, 100 × 4.6 mm) at a flow rate of 0.7 mL/min at 40 °C. Mobile phase A was 0.1% formic acid in water and mobile phase B was 0.1% formic acid in methanol. The samples were analyzed on a SCIEX 6500+ QTRAP under negative ESI mode. The total run time was 5.5 min. Eight calibration standards and three quality control (LQC, MQC and HQC) samples were used for quantification.
The primary metabolites of PG were measured in dog and human plasma following oral administration of EC MEDI7219 tablets to examine a potential mechanism of the PG-mediated renal toxicity in dog and its possible translatability to humans. Plasma concentrations of PG, its phase-I metabolites GA and 4OMGA and phase-II glucuronide and glutathione conjugates were measured. The human and dog samples, collected through 8 h after administration, were analyzed and the results were compared (Figure , Figure S5). Based on allometric scaling method the highest daily dose administered in humans was approximately 8-fold less compared with the dose level tested in dogs.
Human (H) data is in black. Dog (D) data is in red (study 002). Concentration (mM) is in log10 scale. Data was normalized to PG dose (mg/kg/day). N = 8 for human (PG dosed at 800 mg with MEDI7219 tablets). N = 6 for dogs (PG dosed at 200 mg/kg/day). Below LLOQ values were set to 1/2 LLOQ for the calculation.

CCCOC(=O)c1cc(O)c(O)c(O)c1 [PG, propyl gallate]
Log P [1]: 2.13 | AUC(0-t) ([2]; 12.5 mg/kg/day, PG 12.5, NaCDC 10, MEDI7219 0.75 mg/kg/day, clin excipients, Study 005 Day 112, read-out: Propyl Gallate Exposure (AUC0-24)): 0.072 µg·h/mL | AUC(0-t) ([2]; 12.5 mg/kg/day, PG 12.5, NaCDC 10, MEDI7219 0.75 mg/kg/day, clin excipients, Study 005 Day 196, read-out: Propyl Gallate Exposure (AUC0-24)): 0.088 µg·h/mL | AUC(0-t) ([2]; 12.5 mg/kg/day, PG 12.5, NaCDC 10, MEDI7219 0.75 mg/kg/day, clin excipients, Study 005 Day 266, read-out: Propyl Gallate Exposure (AUC0-24)): 0.09 µg·h/mL | AUC(0-t) ([2]; 14 mg/kg/day, PG 14, NaCDC 7, MEDI7219 0.4 mg/kg/day, clin excipients, Study 004 Day 78, read-out: Propyl Gallate Exposure (AUC0-24)): 0.101 µg·h/mL | AUC(0-t) ([2]; 200 mg/kg/day, PG 200, NaCDC 0, MEDI7219 0 mg/kg/day, clin excipients minus NaCDC and Tris, Study 002 Day 14, read-out: Propyl Gallate Exposure (AUC0-24)): 1.89 µg·h/mL | AUC(0-t) ([2]; 200 mg/kg/day, PG 200, NaCDC 0, MEDI7219 0 mg/kg/day, clin excipients minus NaCDC and Tris, Study 002 Day 21, read-out: Propyl Gallate Exposure (AUC0-24)): 4.84 µg·h/mL | AUC(0-t) ([2]; 200 mg/kg/day, PG 200, NaCDC 0, MEDI7219 0 mg/kg/day, clin excipients minus NaCDC, Study 002 Day 14, read-out: Propyl Gallate Exposure (AUC0-24)): 2.58 µg·h/mL | AUC(0-t) ([2]; 200 mg/kg/day, PG 200, NaCDC 0, MEDI7219 0 mg/kg/day, clin excipients minus NaCDC, Study 002 Day 21, read-out: Propyl Gallate Exposure (AUC0-24)): 1.85 µg·h/mL | AUC(0-t) ([2]; 200 mg/kg/day, PG 200, NaCDC 0, MEDI7219 0 mg/kg/day, clin excipients minus NaCDC, Study 003 Day 22, read-out: Propyl Gallate Exposure (AUC0-24)): 6.29 µg·h/mL | AUC(0-t) ([2]; 200 mg/kg/day, PG 200, NaCDC 0, MEDI7219 0 mg/kg/day, gelatin capsule (PG only), Study 003 Day 22, read-out: Propyl Gallate Exposure (AUC0-24)): 1.98 µg·h/mL | AUC(0-t) ([2]; 200 mg/kg/day, PG 200, NaCDC 100, MEDI7219 0 mg/kg/day, clin excipients minus Tris, Study 002 Day 14, read-out: Propyl Gallate Exposure (AUC0-24)): 2.76 µg·h/mL | AUC(0-t) ([2]; 200 mg/kg/day, PG 200, NaCDC 100, MEDI7219 0 mg/kg/day, clin excipients minus Tris, Study 002 Day 21, read-out: Propyl Gallate Exposure (AUC0-24)): 1.8 µg·h/mL | AUC(0-t) ([2]; 200 mg/kg/day, PG 200, NaCDC 100, MEDI7219 0 mg/kg/day, clin excipients, Study 002 Day 14, read-out: Propyl Gallate Exposure (AUC0-24)): 3.25 µg·h/mL | AUC(0-t) ([2]; 200 mg/kg/day, PG 200, NaCDC 100, MEDI7219 2 mg/kg/day, clin excipients, Study 001 Day 28, read-out: Propyl Gallate Exposure (AUC0-24)): 1.21 µg·h/mL | AUC(0-t) ([2]; PG 25, NaCDC 20, MEDI7219 0.25 mg/kg/day, clin excipients, Study 005 Day 112, read-out: Propyl Gallate Exposure (AUC0-24)): 0.135 µg·h/mL | AUC(0-t) ([2]; PG 25, NaCDC 20, MEDI7219 0.25 mg/kg/day, clin excipients, Study 005 Day 196, read-out: Propyl Gallate Exposure (AUC0-24)): 0.232 µg·h/mL | AUC(0-t) ([2]; PG 36, NaCDC 18, MEDI7219 1.1 mg/kg/day, clin excipients, Study 004 Day 78, read-out: Propyl Gallate Exposure (AUC0-24)): 0.282 µg·h/mL | AUC(0-t) ([2]; PG 44, NaCDC 22, MEDI7219 0 mg/kg/day, clin excipients, Study 005 Day 196, read-out: Propyl Gallate Exposure (AUC0-24)): 0.864 µg·h/mL | AUC(0-t) ([2]; PG 44, NaCDC 35, MEDI7219 2.6 mg/kg/day, clin excipients, Study 005 Day 196, read-out: Propyl Gallate Exposure (AUC0-24)): 1.87 µg·h/mL | AUC(0-t) ([2]; PG 60, NaCDC 48, MEDI7219 0 mg/kg/day, clin excipients, Study 005 Day 112, read-out: Propyl Gallate Exposure (AUC0-24)): 3.61 µg·h/mL | AUC(0-t) ([2]; PG 60, NaCDC 48, MEDI7219 3.6 mg/kg/day, clin excipients, Study 005 Day 112, read-out: Propyl Gallate Exposure (AUC0-24)): 0.829 µg·h/mL | AUC(0-t) ([2]; PG 76, NaCDC 38, MEDI7219 0.75 mg/kg/day, clin excipients, Study 001 Day 28, read-out: Propyl Gallate Exposure (AUC0-24)): 0.618 µg·h/mL | AUC(0-t) ([2]; PG 100, NaCDC 50, MEDI7219 0 mg/kg/day, clin excipients, Study 004 Day 78, read-out: Propyl Gallate Exposure (AUC0-24)): 1.83 µg·h/mL | AUC(0-t) ([2]; PG 100, NaCDC 50, MEDI7219 3 mg/kg/day, clin excipients, Study 004 Day 78, read-out: Propyl Gallate Exposure (AUC0-24)): 0.767 µg·h/mL | AUC(0-t) ([2]; PG 200, NaCDC 100, MEDI7219 0 mg/kg/day, clin excipients, Study 001, Day 28 column but Day 7 AUC value is presented (footnote g), read-out: Propyl Gallate Exposure (AUC0-24)): 2.56 µg·h/mL | AUC(0-t) ([2]; female, 25 mg/kg/day, female (F), PG 25, NaCDC 20, MEDI7219 0.25 mg/kg/day, clin excipients, Study 005 Day 266, read-out: Propyl Gallate Exposure (AUC0-24)): 0.986 µg·h/mL | AUC(0-t) ([2]; male, 25 mg/kg/day, male (M), PG 25, NaCDC 20, MEDI7219 0.25 mg/kg/day, clin excipients, Study 005 Day 266, read-out: Propyl Gallate Exposure (AUC0-24)): 0.158 µg·h/mL | Plasma exposure, humans compared with dogs [3]: comparable between the two species
